The test system of data set [1] is primary rat cortical microglia. Description: NO (nitrite) release from LPS-treated primary microglia. The note with it: LPS 3 EU/ml, 24 hours. Format: cell-based. Here is the method:
(§1) FIG. 4A and FIG. 4B. Effect of KCa3.1 inhibition on NO and IL-1β release from primary microglia. […] (B) Primary rat cortical microglia were incubated with LPS (3 EU/ml) for 24 hours to induce expression of IL-1β.
(§2) After 24 hours, media was assayed for nitrite (stable metabolite of NO). […] Primary rat cortical microglia were also treated with LPS (3 EU/ml, 3 hours) to stimulate the production of pro-IL-1β.

In data set [2] the test system is primary rat cortical microglia. Briefly: IL-1β release from primary microglia. Format: cell-based. Here is the method: as §1, §2
Data set [3] is described as follows: Pharmacokinetics and CNS penetration in mouse. It is filed as in vivo. As to the method:
Since experimental surgery-related inflammation is resolved seven days […] the animals are tested, it supported the hypothesis that the efficacy was mediated by inhibition of KCa3.1 on microglia in the spinal cord or brain rather than peripheral immune cells. […] Based on the rat and mouse pharmacokinetic data CNS penetrance in humans seems promising.

For data set [4] the following is noted: cited from earlier work; for free brain concentration / free plasma concentration / Cerebrospinal fluid (CSF) concentration: 10 mg/kg oral; for brain concentration / plasma concentration: 40 mg/kg i.p.
For data set [5] the following is noted: clinical trials; cited from earlier work.
For data set [6], the system named is cytochrome P450-dependent enzymes. The note with it: cited from earlier work.
Data set [7] relates to ~70 additional neuronal drug targets (50 neuronal receptors, 8 enzymes, 5 transporters and 7 ion channels). The note with it: cited from earlier work.
Data set [8] concerns mechanical hypersensitivity induced by peripheral nerve injury. The note with it: rat, 10, 30 and 100 mg/kg p.o., only the highest dose significant; cited from earlier work.
A further data set relates to locomotor activity. The note with it: rat, doses required for efficacy in the chronic constriction injury model; cited from earlier work.
For data set [9] the following is noted: clinical trials, healthy volunteers and sickle cell patients; cited from earlier work.
The subject of data set [10] is sickle cell disease. The note with it: Phase 2, 10 mg/day, sickle cell patients; cited from earlier work.
For data set [11], the system named is sickle cell disease. The note with it: Phase 3, sickle cell patients, cited from earlier work.
The conditions of data set [12]: primates; cited from earlier work.
In the next data set the target is T1, human CYP2B6 (Homo sapiens, UniProt P20813).
T1 sequence (P20813 1-491): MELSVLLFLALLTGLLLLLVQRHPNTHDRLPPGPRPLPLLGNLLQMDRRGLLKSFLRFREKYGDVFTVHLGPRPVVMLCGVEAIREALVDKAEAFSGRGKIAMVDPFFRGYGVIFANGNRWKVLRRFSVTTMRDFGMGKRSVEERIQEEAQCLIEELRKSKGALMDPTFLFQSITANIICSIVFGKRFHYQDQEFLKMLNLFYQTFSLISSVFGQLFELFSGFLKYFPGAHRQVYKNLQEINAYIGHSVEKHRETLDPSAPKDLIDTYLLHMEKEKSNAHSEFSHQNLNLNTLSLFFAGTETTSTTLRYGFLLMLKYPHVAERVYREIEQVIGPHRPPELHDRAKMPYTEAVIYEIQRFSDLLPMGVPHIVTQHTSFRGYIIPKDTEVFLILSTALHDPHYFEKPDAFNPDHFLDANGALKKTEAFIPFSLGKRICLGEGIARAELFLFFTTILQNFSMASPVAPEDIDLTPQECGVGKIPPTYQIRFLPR
The note with it: cited from earlier work.

Another data set has as its target human CYP2C19 (Homo sapiens, UniProt P33261). The note with it: cited from earlier work.
The next data set addresses human CYP3A4 (Homo sapiens, UniProt P08684). The note with it: cited from earlier work.
The test system of a further data set is ischemic stroke. The note with it: rat, cited from earlier work.
The subject of data set [13] is non-selective cation current in primary microglia. The note with it: primary microglia stimulated with LPC; cited from earlier work.
For another data set, the target named is T2, human KCa3.1 (Homo sapiens, UniProt O15554).
T2 construct: expressed in transfected cells
The note with it: human KCa3.1 expressed in recombinant cells; read-out: In-vitro IC50 (nM)*; cited from earlier work.

Entries after “also recorded” stand apart in the source; their conditions may differ. Read-outs that look alike come from different tables or passages of the source.

Chain of human CYP2C19 (P33261 whole entry): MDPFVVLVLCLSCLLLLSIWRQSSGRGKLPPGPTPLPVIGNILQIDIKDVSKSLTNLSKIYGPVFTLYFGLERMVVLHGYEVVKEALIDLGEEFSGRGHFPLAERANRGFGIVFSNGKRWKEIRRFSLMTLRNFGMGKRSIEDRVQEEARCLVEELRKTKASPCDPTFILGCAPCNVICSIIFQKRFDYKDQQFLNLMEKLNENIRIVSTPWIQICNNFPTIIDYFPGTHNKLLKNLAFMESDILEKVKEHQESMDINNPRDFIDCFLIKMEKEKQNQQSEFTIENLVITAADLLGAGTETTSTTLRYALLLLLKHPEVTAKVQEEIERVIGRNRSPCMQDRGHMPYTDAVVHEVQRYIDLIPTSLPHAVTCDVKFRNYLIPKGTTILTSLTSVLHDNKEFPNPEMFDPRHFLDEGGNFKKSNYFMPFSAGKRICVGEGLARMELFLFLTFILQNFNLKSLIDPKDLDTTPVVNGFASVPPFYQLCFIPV
Chain of human CYP3A4 (P08684 whole entry): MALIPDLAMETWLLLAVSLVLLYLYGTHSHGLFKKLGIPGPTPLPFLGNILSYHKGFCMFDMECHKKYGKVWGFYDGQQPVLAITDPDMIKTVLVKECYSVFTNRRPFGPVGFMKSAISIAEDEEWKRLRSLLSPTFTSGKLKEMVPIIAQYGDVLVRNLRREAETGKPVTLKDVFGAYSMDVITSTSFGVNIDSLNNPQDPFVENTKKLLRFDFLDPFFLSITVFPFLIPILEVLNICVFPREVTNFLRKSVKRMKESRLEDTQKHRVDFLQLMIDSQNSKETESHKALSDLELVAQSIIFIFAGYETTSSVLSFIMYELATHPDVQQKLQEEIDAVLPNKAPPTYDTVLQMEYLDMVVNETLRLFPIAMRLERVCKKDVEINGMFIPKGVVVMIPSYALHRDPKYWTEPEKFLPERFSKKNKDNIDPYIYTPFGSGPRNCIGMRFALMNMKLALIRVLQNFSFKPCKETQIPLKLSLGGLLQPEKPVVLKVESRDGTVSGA

Take `NC(=O)C(c1ccccc1)(c1ccc(F)cc1)c1ccc(F)cc1` [Senicapoc, senicapoc]: the IC50 was determined as 39 nM in [1] (average); 15 nM in [2] (LPS 3 EU/ml 3 hours, then BzATP 1 mM); 1.3 nM in [2] (figure legend: LPS 3 EU/ml for 24 hours (n=3)). The EC50 in [1] (representative experiment (n=3), read-out: EC50, production of NO (nitrite)) was 0.9 nM. Moreover, the “brain versus plasma levels” value in data set [3] is recorded as “higher levels in brain than plasma”. The “Cmax-Total (nM) Plasma” value in data set [3] (10 mg/kg p.o., plasma) is given as 709 nM; in [4] (rat, 10 mg/kg p.o.), 2,400 nM. Further, the fraction unbound was found to be 0.008 in data set [3] (brain, read-out: % unbound Brain) and 0.015 in [3] (plasma, read-out: % unbound Plasma). The Tmax in [3] (in vivo, po, 10 mg/kg p.o.) was 0.33 h. In [3] (in vivo, po, 10 mg/kg p.o., read-out: T½ (converted)), the half-life was 3.1 h. Also, the free brain concentration in [4] (rat, four hours post-dose) is reported as 136 nM; in data set [4] (rat, one hour post-dose) it was 37 nM. In addition, the free plasma concentration in data set [4] (rat, four hours post-dose) is listed as 65 nM; in data set [4] (rat, one hour post-dose), 17 nM. In addition, the “Cerebrospinal fluid (CSF) concentration” value is reported as 121 nM in [4] (rat, four hours post-dosing) and 25 nM in data set [4] (rat, one hour post-dosing). The “Cmax-Unbound (nM) CSF” value in data set [4] (rat, 10 mg/kg p.o., CSF) was 121 nM. Besides, in data set [4] (rat, 10 mg/kg p.o.), the “Cmax-Total (nM) Brain” value is 17,000 nM. Besides, the “Cmax-Unbound (nM) Brain” value in data set [4] (rat, 10 mg/kg p.o.) was 136 nM. For the same compound, the “Cmax-Unbound (nM) Plasma” value in data set [4] (rat, 10 mg/kg p.o.) was 65 nM. For the same compound, the “T½” value in [4] (rat, 10 mg/kg p.o.) was 1 h. Further, the “% unbound Plasma” value in data set [4] (rat) was 2.7%. Also, the blood-brain barrier crossing entry in data set [4] (rat) is “cross the blood-brain barrier”. Moreover, the t1/2 in humans in [5] was 552 h. In [6], the “effect on cytochrome P450-dependent enzymes” value is “does not suffer from metabolic instability or effects on cytochrome P450”. Also, the “inhibition of ~70 additional neuronal drug targets” value in [7] (1 μM) was “None of the targets tested was inhibited”. Further, in [7] (at concentrations that block KCa3.1), the off target effects entry is “no known off target effects”. For the same compound, in data set [8], the mechanical hypersensitivity result is listed as “attenuated”. In addition, in the data set with locomotor activity, the locomotor activity entry is given as “did not observe any significant impact; also recorded: did not alter activity”. Also, the “tolerability / side effects in humans” value in [9] was “without any significant side effects; also recorded: well tolerated; also recorded: safe and has a low incidence of side effects”. The “hematocrit and hemoglobin levels” value with sickle cell disease [10] is “significantly increased”. Also, the hemolysis result with sickle cell disease [10] was “reduced”. The “pain outcome measures (vaso-occlusive / painful crises)” value in the data set with sickle cell disease [11] is “no improvement”; with sickle cell disease [11] (listed as senicapoc), “no effect”.

Take `Clc1ccccc1C(c1ccccc1)(c1ccccc1)n1cccn1` [TRAM-34]: in [4] (rat, 10 mg/kg p.o.), the “Cmax-Total (nM) Brain” value is on record as around 2500 nM, the “Cmax-Unbound (nM) Brain” value was 50 nM, the “Cmax-Total (nM) Plasma” value was around 2500 nM and the “Cmax-Unbound (nM) Plasma” value is listed as 50 nM. Besides, in [4] (rat, 10 mg/kg p.o.), the time of peak concentration (Tmax) is 0.5 to 1 h and the “T½” value is around 2 h. In [4] (rat, 8 hours), the brain concentration is around 1000 nM and the plasma concentration was around 1000 nM. In [4] (rat, 12 hours), the brain concentration was 400 nM and the plasma concentration is 400 nM. In [4] (rat), the “% unbound Plasma” value is on record as 2% and the “% unbound in plasma” value was “approximately 2%”. The half-life in [4] (rats) is around 2 h. Besides, in [12], the half-life was around 2 h. For the same compound, the “effect on cytochrome P450-dependent enzymes” value in data set [6] is “no effect”. Also, the “IC50, CYP2B6” value at human CYP2B6 is recorded as “low micromolar range”. Moreover, the “IC50, CYP2C19” value on human CYP2C19 is given as “low micromolar range”. In addition, the “IC50, CYP3A4” value at human CYP3A4 was “low micromolar range”. Further, in the data set on ischemic stroke (10 and 40 mg/kg i.p.), the neuronal loss entry is reported as “significantly attenuated” and the “post stroke infarct volume” value is “significantly attenuated”. Moreover, in the data set on ischemic stroke (given 12 hours after insult), the “outcome when given 12 hours after the ischemic insult” value is listed as “improved the outcome”. In the data set with ischemic stroke, the “extent of microglial ED1 staining” value is reported as “significantly reduced” and the neurological deficit score result is recorded as “improved”.

Take charybdotoxin: in [13], the “effect on LPC signals” value is “no effect”.

For the compound `O=C1CSc2ccccc2N1Cc1cccc(C(F)(F)F)c1` [NS6180, 4-[[3-(trifluoromethyl)phenyl]methyl]-2H-1,4-benzothiazin-3(4H)-one], on human KCa3.1, the IC50 was 9.4 nM. In data set [4] (rat, 10 mg/kg p.o.), the “Cmax-Total (nM) Plasma” value was 186 nM and the “T½” value was 3.8 h.
